From patent US20090029984A1 (priority 2005, published 2009)
Values joined by “and” are separate entries in the source; they are usually repeats but may differ in a detail not shown here. Equal values may be shown once. “Also recorded” adds a separate entry of the source. Read-outs that look alike come from different tables or passages of the source.

Tests used:
[1] = rat, cited from earlier work
[2] = tested on: mice; settings: mouse, in vivo
[3] = molecular target: T1, human CB2 receptor (Homo sapiens, UniProt P34972); assay: Efficacy and potency at the human CB2 receptor expressed in CHO cells (cAMP, forskolin); assay type: cell-based
T1 construct: expressed in transfected cells; host or cells: CHO cells
T1 sequence (P34972 whole entry): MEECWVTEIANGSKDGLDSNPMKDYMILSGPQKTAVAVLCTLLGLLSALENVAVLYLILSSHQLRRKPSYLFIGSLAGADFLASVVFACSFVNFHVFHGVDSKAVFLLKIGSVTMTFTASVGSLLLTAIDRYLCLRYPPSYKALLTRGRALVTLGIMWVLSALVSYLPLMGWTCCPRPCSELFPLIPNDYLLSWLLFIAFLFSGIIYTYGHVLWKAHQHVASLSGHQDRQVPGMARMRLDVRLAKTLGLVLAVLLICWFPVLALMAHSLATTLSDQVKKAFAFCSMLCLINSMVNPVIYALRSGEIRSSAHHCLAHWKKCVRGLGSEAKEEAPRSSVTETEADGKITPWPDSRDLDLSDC

CCCCCc1cc(O)c2c(c1)OC(C)(C)c1ccc(C)cc1-2 [cannabinol]
brain-to-plasma ratio ([1]; Alozie et al 1980): 0.88

Cl.O=C(NCCO)[C@H]1CCCN(Cc2nc(-c3cn(CC4CCS(=O)(=O)CC4)c4c(Cl)cccc34)ns2)C1 [Compound 2, (S)-7-Chloro-3-[(5-{[3-N-(2-hydroxyethyl)carboxamido]piperidin-1-yl}methyl)([1,2,4]-thiadiazol-3-yl)]-1-(1,1-dioxo-hexahydrothiopyran-4-yl)methyl-1H-indole, hydrochloride salt]
combination versus opioid on its own (in words) [2]: significantly different
time of maximum effect post-injection ([2]; iv): 20 min
effect of co-administration on tail flick latency (in words) ([2]; iv, hydrochloride salt): increased tail flick latency in a dose-dependent manner; also recorded: dose-dependent potentiation

CN1CC[C@]23c4c5ccc(O)c4O[C@H]2[C@@H](O)C=C[C@H]3[C@H]1C5 [morphine, reference compound]
% of MPE ([2]; iv): 47.7% and 42.9%

CCCCCc1cc(O)c2c(c1)OC(C)(C)[C@@H]1CCC(C)=C[C@@H]21 [Δ^9THC, Δ^9-tetrahydrocannabinol]
brain-to-plasma ratio ([1]; Alozie et al 1980): 0.96
brain-to-plasma ratio ([1]; Dyson et al 2005): 1.0

COc1ccc2c3c1O[C@H]1[C@@H](O)C=C[C@H]4[C@@H](C2)N(C)CC[C@@]341 [Codeine, reference compound]
% of MPE ([2]; iv): 44.2%
Tail flick latency (s) + s.e.m. at Tmax ([2]; iv): 6.95 ± 0.84 s

C=C(C)[C@@H]1CCC(C)=C[C@H]1c1c(O)cc(CCCCC)cc1O [cannabidiol]
brain-to-plasma ratio ([1]; Alozie et al 1980): 2.61

Cc1c(C(=O)c2cccc3ccccc23)c2cccc3c2n1[C@H](CN1CCOCC1)CO3 [WIN55, 212-2]
brain-to-plasma ratio ([1]; Dyson et al 2005): 1.3-1.9

CCOC(=O)c1c(C)cc2nc(COC(=O)NCCO)n(-c3ccccc3S(=O)(=O)NC)c(=O)c2c1C [Compound 1a, 2-(2-Hydroxy-ethylcarbamoyloxymethyl)-5,7-dimethyl-3-(2-methylsulfamoylphenyl)-4-oxo-3,4-dihydro-quinazoline-6-carboxylic acid ethyl ester]
effect on tail flick latency (in words) [2]: had no effect on tail flick latency
effect on tail flick latency (in words) ([2]; iv): had no effect on tail flick latency; also recorded: did not increase the tail flick latency
time of maximum effect post-injection ([2]; iv): 40 min
EC50 [3]: 3.5 nM
Emax ([3]; CHO, relative to maximal response (100%) obtained with CP 55940, human CB2): 107%
